Results on five compounds are retold here after EP1935986B1, “Luminogenic and fluorogenic compounds and methods to detect molecules or conditions” (priority 2005, dated 2006).

Test [1] has as its system thermostable luciferase (Luc 146-1H2). Kind of test: Thermostable luciferase reaction with luciferin derivatives: light readings. It is filed as biochemical. The note with it: 100 µM each; result in words. Here is the method:
This stock was used to produce enzyme stock solution having of 200 µg/ml enzyme solution in 1 mg/ml BSA, 200 mM HEPES buffer, pH 8.0, 20 mM MgCl2.
Solutions were made using a 1 M DTT solution, pH adjusted to 8.0, a 20 mM Coenzyme A solution in water (both described in examples above), a 100 mM ATP solution and water to create the following solutions: Sol'A, 100 µM ATP; Sol'B, 100 µM ATP, 4 mM Coenzyme A; Sol'n C, 100 µM ATP, 400 mM DTT, and; Sol'n D, 100 µM ATP, 4 mM Coenzyme A and 400 mM DTT.
The following reactions were prepared (Table 47) Table 47
After assembly, the reactions were initiated by addition of 25 µl of the thermostable luciferase stock solution above and mixing the tube contents. A 50 µl sample was immediately removed and placed in a luminometer tube and the light read and the tube then replaced in a tube rack at room temperature. While the light reading was being taken, a 5 µl sample of the remaining reaction (which was kept at room temperature) was diluted into 495 µl of 50 mM BisTris, pH 6.5, 1 mg/ml BSA, 1 mM EDTA prechilled to 4°C and the tube mixed and placed on ice. The light produced by the samples in the luminometer tubes were re-read at 20, 40, 60, 90 and 120 minutes post enzyme addition. Additional 5 µl samples were taken and diluted as above at 60 and 120 minutes post enzyme addition. Once all these readings and samples were taken, 50 µl of the diluted samples was mixed with 50 µl of Steady Glo in luminometer tubes, the tubes incubated 10 minutes on ice then the light produced was read on a Turner TD 20/20 luminometer.

In test [2] the target is T1, QuantiLum Luciferase (Photinus pyralis, UniProt P08659).
T1 construct: purchased Promega Corporation E170
The test is described as follows: Scaffolds: light emission of luciferin derivatives with QuantiLum luciferase alone, + Co A, + DTT, + Co A and DTT. It is filed as biochemical, firefly. Here is the method:
The DTT, Coenzyme A, and QuantiLum stock solutions are the same as those described herein.
This solution was diluted 1:1 with water to produce an enzyme solution labeled "No addition." This solution was diluted 1:1 with 400 mM DTT, pH 8.0 to produce a solution labeled +DTT. This solution was diluted 1:1 with 4 mM Coenzyme A to produce a solution labeled + Co A. Finally, this solution was diluted 1:1 with a solution having both 4 mM Coenzyme A and 400 mM DTT to produce a solution labeled +Co A & DTT.
50 µl samples of these solutions were placed in the wells of luminometer microtiter plates, row A to row G, respeutivly. Row H of the plates was given 50 µl of water.
Reactions in these plates were initiated by addition of 50 µl of solution containing QuantiLum luciferase using a 12 channel micropipette. The solutions added to the rows were: columns 1, 5, and 9 - no addition solution; columns 2, 6, and 10 - + Co A solution; columns 3, 7, and 11 + DTT solution, and; columns 4, 8, and 12 - + Co A and DTT solution. After addition of the enzyme solution to the first row on every plate, a timer was started. After addition of the enzyme solution to the last row on each plate, the plate was sealed and read on a Veritas luminometer.

[3] abbreviates: Derivative Conc. 1.07, Co A + DTT.
[4] abbreviates: Derivative Conc. 3.13, Co A + DTT.
Where [5] appears, read: Derivative Conc. 12.5, Co A + DTT.
Setting [6] is: Derivative Conc. 25, Co A + DTT.
Where [7] appears, read: Derivative Conc. 50, Co A + DTT.
The mark [8] stands for this setting: Derivative Conc. 100, Co A + DTT.
The mark [9] stands for this setting: Derivative Conc. 6.25, Co A + DTT.

T1 sequence (P08659 whole entry): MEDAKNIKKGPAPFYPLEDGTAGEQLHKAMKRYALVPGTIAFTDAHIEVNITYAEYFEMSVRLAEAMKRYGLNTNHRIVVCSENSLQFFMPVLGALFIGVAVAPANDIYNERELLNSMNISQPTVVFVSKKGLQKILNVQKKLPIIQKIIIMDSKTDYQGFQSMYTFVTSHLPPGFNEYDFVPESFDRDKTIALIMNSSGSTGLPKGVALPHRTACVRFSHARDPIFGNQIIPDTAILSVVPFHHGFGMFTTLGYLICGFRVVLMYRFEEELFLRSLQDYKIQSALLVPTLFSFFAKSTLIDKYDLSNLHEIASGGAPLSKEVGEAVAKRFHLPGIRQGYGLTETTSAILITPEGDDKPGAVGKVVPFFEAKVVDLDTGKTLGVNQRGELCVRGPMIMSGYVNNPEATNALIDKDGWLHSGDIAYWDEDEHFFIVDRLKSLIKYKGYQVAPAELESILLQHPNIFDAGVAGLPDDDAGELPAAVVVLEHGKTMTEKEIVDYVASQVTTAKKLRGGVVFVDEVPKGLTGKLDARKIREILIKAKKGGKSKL

In the case of `CN(C)c1ccc2nc(C3=NC(C(=O)O)CS3)sc2c1` (stereo not drawn) [dimethyl amino luciferin], the “brightness of luciferase reaction relative to amino luciferin” value in test [1] is given as “about half as bright”.

Consider `CCN(CC)c1ccc2nc(C3=NC(C(=O)O)CS3)sc2c1` (stereo not drawn) [diethylaminoluciferin], for which the light emission values is on record as 656110 in test [2] (Derivative Conc. 1.07, Alone); 688887 in test [2] (Derivative Conc. 1.07, Co A); 20592 in test [2] (setting [3]); 5192 in test [2] (Derivative Conc. 1.07, DTT); 2259570 in test [2] (Derivative Conc. 3.13, Alone); 1941060 in test [2] (Derivative Conc. 3.13, Co A). Moreover, the light emission values in test [2] (setting [4]) is on record as 93423; in test [2] (Derivative Conc. 3.13, DTT), 47727; in test [2] (Derivative Conc. 6.25, Alone), 4009797; in test [2] (Derivative Conc. 6.25, Co A), 3457051; in test [2] (Derivative Conc. 6.25, DTT), 165732; in test [2] (Derivative Conc. 12.5, Alone), 5418990. The light emission values in test [2] (Derivative Conc. 12.5, Co A) was determined as 4485779; in test [2] (setting [5]), 645536; in test [2] (Derivative Conc. 12.5, DTT) it was 682672; in test [2] (Derivative Conc. 25, Alone) it was 6763022; in test [2] (Derivative Conc. 25, Co A), 5623886; in test [2] (setting [6]), 1067954. Moreover, the light emission values in test [2] (Derivative Conc. 25, DTT) amounted to 1304383; in test [2] (Derivative Conc. 50, Alone) it was 8176569; in test [2] (Derivative Conc. 50, Co A) it was 7206157; in test [2] (setting [7]), 1538668; in test [2] (Derivative Conc. 50, DTT), 1826771; in test [2] (Derivative Conc. 100, Alone), 9082149. The light emission values amounted to 1960750 in test [2] (setting [8]) and 2180983 in test [2] (Derivative Conc. 100, DTT).

In the case of `O=C(O)[C@H]1CSC(c2nc3ccc(OCCO)cc3s2)=N1` [2hydroxyethoxyluciferin ether], the light emission values is reported as 8807 in test [2] (Derivative Conc. 1.07, Alone); 13847 in test [2] (Derivative Conc. 1.07, Co A); 22105 in test [2] (setting [3]); 24491 in test [2] (Derivative Conc. 1.07, DTT); 10769 in test [2] (Derivative Conc. 3.13, Alone); 14986 in test [2] (Derivative Conc. 3.13, Co A). For the same compound, the light emission values is recorded as 32555 in test [2] (setting [4]); 36967 in test [2] (Derivative Conc. 3.13, DTT); 14686 in test [2] (Derivative Conc. 6.25, Alone); 18532 in test [2] (Derivative Conc. 6.25, Co A); 42815 in test [2] (setting [9]); 48458 in test [2] (Derivative Conc. 6.25, DTT). Also, the light emission values in test [2] (Derivative Conc. 12.5, Alone) was 19586; in test [2] (Derivative Conc. 12.5, Co A) it was 21636; in test [2] (setting [5]) it was 54630; in test [2] (Derivative Conc. 12.5, DTT) it was 61882; in test [2] (Derivative Conc. 25, Alone), 27356; in test [2] (Derivative Conc. 25, Co A), 28679. For the same compound, the light emission values worked out at 67303 in test [2] (setting [6]); 76612 in test [2] (Derivative Conc. 25, DTT); 38444 in test [2] (Derivative Conc. 50, Alone); 39320 in test [2] (Derivative Conc. 50, Co A); 87170 in test [2] (setting [7]); 98407 in test [2] (Derivative Conc. 50, DTT). Besides, the light emission values is on record as 53804 in test [2] (Derivative Conc. 100, Alone); 52640 in test [2] (Derivative Conc. 100, Co A); 94724 in test [2] (setting [8]); 128249 in test [2] (Derivative Conc. 100, DTT).

On to `CN(Cc1ccccc1)c1ccc2nc(C3=NC(C(=O)O)CS3)sc2c1` (stereo not drawn) [methylbenzylaminoluciferin], for which the light emission values in test [2] (Derivative Conc. 1.07, Alone) worked out at 25907602; in test [2] (Derivative Conc. 1.07, Co A), 12863007; in test [2] (setting [3]), 2037020; in test [2] (Derivative Conc. 1.07, DTT), 929977; in test [2] (Derivative Conc. 3.13, Alone), 34516960; in test [2] (Derivative Conc. 3.13, Co A), 23501282. Further, the light emission values in test [2] (setting [4]) amounted to 9404429; in test [2] (Derivative Conc. 3.13, DTT), 8088743; in test [2] (Derivative Conc. 6.25, Alone), 43052788; in test [2] (Derivative Conc. 6.25, Co A), 35730272; in test [2] (setting [9]), 19738584; in test [2] (Derivative Conc. 6.25, DTT) it was 21756222. Also, the light emission values in test [2] (Derivative Conc. 12.5, Alone) was found to be 50528576; in test [2] (Derivative Conc. 12.5, Co A), 50418220; in test [2] (setting [5]) it was 30367190; in test [2] (Derivative Conc. 12.5, DTT), 36663612; in test [2] (Derivative Conc. 25, Alone) it was 61572912; in test [2] (Derivative Conc. 25, Co A) it was 63598896. Besides, the light emission values in test [2] (setting [6]) is recorded as 42613860; in test [2] (Derivative Conc. 25, DTT) it was 50632712; in test [2] (Derivative Conc. 50, Alone), 73867336; in test [2] (Derivative Conc. 50, Co A) it was 78390592; in test [2] (setting [7]), 47965140; in test [2] (Derivative Conc. 50, DTT), 54238960. Further, the light emission values in test [2] (Derivative Conc. 100, Alone) is 85579872; in test [2] (Derivative Conc. 100, Co A), 89117784; in test [2] (setting [8]) it was 48409604; in test [2] (Derivative Conc. 100, DTT), 50806656.

As to `COC(=O)[C@H]1CSC(c2ccc3cc(Oc4ccc(C(F)(F)F)cc4[N+](=O)[O-])ccc3n2)=N1` [GST #4], the light emission values in test [2] (Derivative Conc. 1.07, Alone) amounted to 1146; in test [2] (Derivative Conc. 1.07, Co A), 1533; in test [2] (setting [3]) it was 1714; in test [2] (Derivative Conc. 1.07, DTT), 1102; in test [2] (Derivative Conc. 3.13, Alone), 1537; in test [2] (Derivative Conc. 3.13, Co A), 1635. Also, the light emission values worked out at 2034 in test [2] (setting [4]); 1458 in test [2] (Derivative Conc. 3.13, DTT); 1571 in test [2] (Derivative Conc. 6.25, Alone); 1562 in test [2] (Derivative Conc. 6.25, Co A); 1730 in test [2] (setting [9]); 1633 in test [2] (Derivative Conc. 6.25, DTT). For the same compound, the light emission values turned out to be 1692 in test [2] (Derivative Conc. 12.5, Alone); 1275 in test [2] (Derivative Conc. 12.5, Co A); 1891 in test [2] (setting [5]); 1474 in test [2] (Derivative Conc. 12.5, DTT); 1413 in test [2] (Derivative Conc. 25, Alone); 1026 in test [2] (Derivative Conc. 25, Co A). Also, the light emission values in test [2] (setting [6]) is 1640; in test [2] (Derivative Conc. 25, DTT), 1492; in test [2] (Derivative Conc. 50, Alone) it was 1598; in test [2] (Derivative Conc. 50, Co A) it was 1366; in test [2] (setting [7]) it was 1729; in test [2] (Derivative Conc. 50, DTT), 1354. Besides, the light emission values in test [2] (Derivative Conc. 100, Alone) was found to be 2119; in test [2] (Derivative Conc. 100, Co A), 1853; in test [2] (setting [8]), 1990; in test [2] (Derivative Conc. 100, DTT), 1618.
